The nature of data set [1]: Plasmatic and hepatic concentration of C105SR in mice. The format is in vivo. To be noted: sc, mouse, 50 mg/kg by subcutaneous osmotic pump. How it is done:
Briefly, 70% of the liver was subjected to 1 h of ischaemia followed by 6 h of reperfusion, as recently described.[16] C105SR was administered using osmotic pumps at a dose of 50 mg/kg. […]
simulation was performed using @TOME‐2 server with no constraint. The images were generated using PyMOL and MarvinSketch.
Determination of plasmatic and hepatic concentration of C105SR. Mice (10-12 weeks-old, n=6) were anesthetized with isoflurane and subcutaneously implanted with Alzet® osmotic pump containing C105SR (50 mg/kg) or vehicle. 24h after, the blood and the liver were collected. C105SR in plasma and liver homogenates was extracted with cold acetonitrile containing 0.1% of acetic acid and centrifugation at 13,000 x g for 10 min at 4 °C. C105SR dosage was carried out by tandem mass spectrometric detection with a TSQ QUANTIS® mass spectrometer (ThermoFisher Scientific, Villebon-sur-Yvette, France), with an electrospray ionization source (ESI) which was set in positive electro-spray ionization (ESI+). The acquired data were processed using Trace Finder® software version 4.1 (Thermo Fisher Scientific, Villebon-sur-Yvette, France). Optimization of the MS conditions has been performed by single direct infusion of reference standards of the analyte. Two […]

For data set [2], the system named is hepatic ischaemia-reperfusion injury in C57BL/6J mice. The data set is described as follows: Mouse model of hepatic ischaemia-reperfusion injury. The class given is in vivo. To be noted: 50 mg/kg osmotic pump, 1 h ischaemia, 6 h reperfusion. How it is done:
Mice (10–12 weeks-old) were anesthetised with isoflurane and subcutaneously implanted with Alzet® osmotic pump containing C105SR (50 mg/kg) or vehicle 24 h before the surgical procedure. The mice were anesthetised with isoflurane and subjected to partial hepatic ischaemia by clamping the hepatic artery and portal vein for 60 min, followed by 6 h of reperfusion induced by removal of the clamp. The sham-operated group underwent laparotomy without vascular occlusion.
Briefly, 70% of the liver was subjected to 1 h of ischaemia followed by 6 h of reperfusion, as recently described.[16] C105SR was administered using osmotic pumps at a dose of 50 mg/kg.
Mouse serum analysis. Blood was collected at 6 h of reperfusion. Alanine aminotransferase (ALT) and aspartate aminotransferase (AST) activities were measured on an automated analyzer in the Biochemistry Department of Henri Mondor Hospital.
Histological Analysis. Hematoxylin and eosin staining was performed on 4-μm thick formalin-fixed paraffin-embedded tissue sections. Slides were scanned at x20 magnification using a virtual slide scanning system (Axio scan7/ZEN slidescan). Necrosis areas were quantified with […]
TUNEL Assay. Terminal deoxynucleotidyl-transferase (TdT) dUTP Nick-End Labeling (TUNEL) was performed on formalin-fixed paraffin-embedded tissue sections using a commercial kit (Abcam, Cambridge, United Kingdom) following the manufacturer’s instructions. The number of TUNEL-positive cells were quantified using QuPath on slides scanned at x20 magnification using a virtual slide scanning system (Axio scan7/ZEN slidescan).
Caspase 3/7 activity assay. Caspase 3/7 activity was assessed using the commercially Caspase-Glo® 3/7 assay (Promega, Madison, Wisconsin) following the manufacturer’s instructions.
Briefly, Caspase-Glo® 3/7 Reagent was incubated with the cells and the caspase3/7 activity was determined by measuring luminescence with a luminometer (Berthold). Caspase3/7 activity was expressed as a percentage of the untreated control.
In silico modeling and docking. […]

Like-named read-outs stand apart in the source and are kept apart here.

Turning to `COc1ccc(Br)cc1[C@H](NC(=O)NCc1ccc2c(c1)CCCN2)C(=O)N1CCC[C@@H]1c1cccc2ccsc12` [Compound C105SR, 1-((S)-2-((R)-2-(benzo[b]thiophen-7-yl)pyrrolidin-1-yl)-1-(5-bromo-2-methoxyphenyl)-2-oxoethyl)-3-((1,2,3,4-tetrahydroquinolin-6-yl)methyl)urea], the concentration at 24 h in data set [1] (liver, read-out: hepatic concentration) is approximately 30 nM. Moreover, the concentration at 24 h in data set [1] (plasma, read-out: plasmatic concentration) was approximately 30 nM. Moreover, in data set [2], the “hepatocyte necrosis (histology)” value is reported as “significantly protected”; the “serum ALT and AST levels” value was “significantly protected”. Moreover, the “number of TUNEL-positive apoptotic cells” value in data set [2] (vs vehicle) is on record as “significantly reduced”.
